Results taken from patent US5972680A, “Glucose transporter vesicle aminopeptidase” (Bayer Corporation, priority 1995, dated 1999).
Where two headings read alike, the source gives them in different places. Values belong to the compound of their own block, whether it stands above or below them. Where a SMILES comes first, the peptide text is derived from it. The star is where a group is joined. CH2Cl = ClC*

What was measured:
GTVap [1] = target: T1, GTVap (Rattus norvegicus, UniProt P97629); assay: Effect of ions on GTVap activity, Triton X-100 extracts of HDM; format: biochemical
T1 construct: the GTVaps were solubilized from GLUT4 vesicles, LDM, HDM, and PM using 0.1% Triton X-100; from tissue; host or cells: adipocytes of epididymal fat pads of Sprague-Dawley rats, HDM fraction (Triton X-100 extract)
T1 sequence (P97629 1-1025): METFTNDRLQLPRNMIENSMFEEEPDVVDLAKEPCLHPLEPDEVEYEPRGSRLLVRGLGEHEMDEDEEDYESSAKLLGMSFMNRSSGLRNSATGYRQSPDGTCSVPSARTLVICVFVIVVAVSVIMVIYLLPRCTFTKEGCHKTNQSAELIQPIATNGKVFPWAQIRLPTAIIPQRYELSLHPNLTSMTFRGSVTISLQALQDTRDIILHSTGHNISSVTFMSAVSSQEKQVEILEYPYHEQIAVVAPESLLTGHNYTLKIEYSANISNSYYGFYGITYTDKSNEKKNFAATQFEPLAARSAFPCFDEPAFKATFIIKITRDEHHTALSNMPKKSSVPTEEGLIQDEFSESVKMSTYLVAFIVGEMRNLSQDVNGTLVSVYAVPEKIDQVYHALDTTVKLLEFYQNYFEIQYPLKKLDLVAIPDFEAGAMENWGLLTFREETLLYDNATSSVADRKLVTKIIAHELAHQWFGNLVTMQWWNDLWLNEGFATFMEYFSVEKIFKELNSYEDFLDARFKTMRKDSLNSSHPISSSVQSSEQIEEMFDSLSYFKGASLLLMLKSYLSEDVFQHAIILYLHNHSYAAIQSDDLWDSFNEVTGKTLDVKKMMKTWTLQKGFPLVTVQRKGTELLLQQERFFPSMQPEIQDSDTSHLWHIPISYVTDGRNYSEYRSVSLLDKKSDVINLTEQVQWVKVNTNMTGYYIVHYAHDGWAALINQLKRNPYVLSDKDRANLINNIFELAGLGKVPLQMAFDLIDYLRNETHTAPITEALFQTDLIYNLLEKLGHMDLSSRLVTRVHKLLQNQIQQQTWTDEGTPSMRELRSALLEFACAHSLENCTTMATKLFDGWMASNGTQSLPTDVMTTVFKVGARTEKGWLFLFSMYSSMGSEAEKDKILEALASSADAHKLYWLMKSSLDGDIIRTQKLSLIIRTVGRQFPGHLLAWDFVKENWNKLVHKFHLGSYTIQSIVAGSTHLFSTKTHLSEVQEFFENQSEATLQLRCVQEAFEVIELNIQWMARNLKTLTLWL

GTVap [2] = target: T1, GTVap; assay: Ion stabilization of GTVap activity over time at 4° C.; format: biochemical; conditions: HDM extract in 20 mM Tris-HCl pH 7.5 at 4° C.
GTVap [3] = target: T1, GTVap; assay: GTVap inhibition by protease and aminopeptidase inhibitors, leu-p-nitroanilide substrate, HDM extract; format: biochemical; conditions: for IC50: HDM enzyme extract, inhibitor added 15 minutes prior to leu-p-nitroanilide substrate
GTVap [4] = target: T1, GTVap; assay: Relative activity of GTVap with amino acid p-nitroanilide substrates, HDM extract; format: biochemical; conditions: substrate 1.6 mM, 37° C.
Experimental: The […] can be maximally extracted (>95%) from the LDM, HDM, and PM membranous compartments using low concentrations of detergents. Unless otherwise indicated, the […] were solubilized from GLUT4 vesicles, LDM, HDM, and PM using 0.1% Triton X-100 in 20 mM Tris, pH 7.5 at 4° C. for 15 minutes. The insoluble material was pelleted at 20,000×g for 20 minutes and discarded. […] The UV absorbance of the p-nitroanilide product was measured at 405 nm and quantified by comparison to p-nitroanilide standards. The results are reported as pmoles p-nitroanilide produced per μg protein/hour at 37° C. unless otherwise noted. Alternatively, the results are presented as change in OD at 405 nm if the protein was too low to determine (eg column fractions) or a relative comparison was being made. […] To characterize the relative reactivities of GTVap to different amino acid p-nitroanilide substrates, an HDM extract was prepared as described above and incubated with each substrate at a concentration of 1.6 mM as described above.

GLUT4 vesicle GTVap = target: T2, GLUT4 vesicle GTVap (Rattus norvegicus, UniProt P97629); assay: Relative activity of GLUT4 vesicle GTVap with amino acid β-napthylamide substrates; format: biochemical; conditions: GLUT4 vesicle extract; substrate 200 uM
T2 construct: a GLUT4 vesicle extract was prepared as described above and incubated with each substrate; from tissue; host or cells: GLUT4 vesicles immunopurified from the LDM fraction of rat epididymal adipocytes
T2 sequence (P97629 1-1025): T1 sequence (P97629 1-1025)
Experimental: Unless otherwise indicated, the GTVaps were solubilized from GLUT4 vesicles, LDM, HDM, and PM using 0.1% Triton X-100 in 20 mM Tris, pH 7.5 at 4° C. for 15 minutes. The insoluble material was pelleted at 20,000×g for 20 minutes and discarded. […] The results are reported as pmoles p-nitroanilide produced per μg protein/hour at 37° C. unless otherwise noted.
To characterize the relative reactivities of GTVap to different amino acid β-napthylamide substrates, a GLUT4 vesicle extract was prepared as described above and incubated with each substrate at a concentration of 200 uM as described above.

[5] = target: GTVap (Glucose Transporter Vesicle aminopeptidase) as present in rat adipocyte HDM and HDM extracts (rat); assay: batch adsorption of solubilised HDM extract on wheat germ lectin-Sepharose
GTVap [6] = assay: Insulin-stimulated translocation of GTVap to the plasma membrane in rat adipocytes; format: cell-based; conditions: insulin 10 nM, 20 minutes at 37° C.
Experimental: Epididymal fat pads from 125 g Sprague-Dawley rats were removed and immediately placed in KRBH buffer containing 1% BSA, 2.5 mM glucose and 200 nM adenosine. The fat was minced, collagenase was added to 3 mg/ml, and the mixture was incubated at 37° C. for 45 minutes with shaking. The dissociated adipocytes were filtered through a 250 micron nylon screen and washed 3 times (using mild centrifugation) with KRBH containing 1% BSA and 200 nM adenosine. The cells were resuspended in the wash buffer containing 3% BSA.
The membrane fractions PM, HDM and LDM were prepared generally according to Simpson et. al., Biochimica et Biophysica Acta, 763, 393-407 (1983). Isolated adipocytes were homogenized in a chilled Wheaton 55 ml teflon pestle homogenizer for ten strokes. The fat layer was removed following a 10,000×g centrifugation and the remaining material was rehomogenized. The PM fraction was pelleted at 16,000×g and the supernatant was recentrifuged to remove any additional PM. […]
GLUT4 is known to translocate from an intracellular vesicular compartment to the plasma membrane upon insulin stimulation. […] The insulin stimulated and control adipocytes were fractionated into the subcellular compartments and analyzed for GTVap enzyme and protein (Western blot) as previously described.

GTVap [7] = target: T1, GTVap; assay: GTVap cleavage of insulin by HDM, mass spectrometry; format: biochemical; conditions: HDM 1.8 mg/ml, 120 μg/ml porcine insulin, 37° C., pH 7.5
Experimental: HDM (1.8 mg/ml) was incubated at 37° C. with 120 μg/ml porcine insulin in 50 mM sodium borate, pH 7.5, containing the following protease inhibitors that were previously shown to have no inhibitory effect on GTVap: 2 mM benzamidine, 2 μM leupeptin, 1 μM pepstatin, 1 mM DFP, and 150 μM PMSF. The reaction was terminated after various incubation times by centrifugation of aliquots at 200,000×g to remove the HDM. The insulin products were detected by mass spectrometry or were first chromatographed on a 2.1×15 cm Beckman Spherisorb C18 column at 0.25 ml/min. in a 4 hour linear gradient of 27% to 31% acetonitrile in 1% TFA adjusted to pH 3.0 with TEA, prior to mass spectroscopic analysis.

[8] = incubated 15 minutes at 37° C. before leu-p-nitroanilide

Compound: [Ca] [Calcium]
effect of ion on GTVap enzyme activity (GTVap [1]; [8]): partially activate, but at high μmolar to mmolar ion concentrations
stabilization of GTVap activity against time dependent inactivation (GTVap [2]): stabilizes the enzyme activity

Compound: N=C(N)c1ccccc1 [benzamidine, Benzamidine]
effect on GTVap activity (GTVap [3]): no effect

Compound: O[C@H](CS)[C@H](O)CS (racemic) [Dithiothreitol]
activation at 200 µM (GTVap [3]; at 0.2 mM, read-out: increase of enzyme activity): 20%
inhibition at 5000 µM (GTVap [3]; at 5 mM): 30%

Compound: CC(C)C[C@H](NC(=O)[C@@H](N)CC(C)C)C(=O)N[C@@H](Cc1ccccc1)C(=O)CCl [Leu-Leu-Phe-chloromethyl ketone] (H-Leu-Leu-Phe-CH2Cl)
IC50 (GTVap [3]): 1000 µM

Compound: CC(=O)N[C@@H](CC(C)C)C(=O)N[C@@H](CC(C)C)C(=O)N[C@H](C=O)CCCNC(=N)N [leupeptin, Leupeptin]
effect on GTVap activity (GTVap [3]): no effect

Compound: NCC(=O)Nc1ccc([N+](=O)[O-])cc1 [glycine p-nitroanilide]
activity of GTVap with amino acid-p-nitroanilide substrate (GTVap [4]): 0.08 nmoles/μg protein/hr

Compound: [Mg] [magnesium]
effect of ion on GTVap enzyme activity (GTVap [1]; [8]): partially activate, but at high μmolar to mmolar ion concentrations

Compound: [Co+2] [cobalt]
effect of ion on GTVap enzyme activity (GTVap [1]; [8]): optimally activate at μmolar concentrations and inhibit at mmolar concentrations
stabilization of GTVap activity against time dependent inactivation (GTVap [2]): do not stabilize the enzyme

Compound: CCCCC[C@H](CC(=O)NO)C(=O)N[C@H](C(=O)N1CCC[C@H]1CO)C(C)C [actinonin, Actinonin]
IC50 (GTVap [3]): > 1000 µM

Compound: N=C(N)NCCCC(N)C(=O)Nc1ccc2ccccc2c1 (stereo not drawn) [arginine β-napthylamide]
activity of GLUT4 vesicle GTVap with amino acid-β-napthylamide substrate (GLUT4 vesicle GTVap): 6.5 nmoles/25 uL extract/hr

Compound: CC(C)C[C@H](N)CS [leuthiol, L-leucinethiol]
IC50 (GTVap [3]): 2 µM

Compound: O=S(=O)(F)Cc1ccccc1 [PMSF, phenylmethylsulfonyl fluoride]
effect on GTVap activity (GTVap [3]): no effect

Compound: c1ccc(-c2ccccn2)nc1 [dipyridyl]
inhibition of GTVap activity (GTVap [3]): > 98%

Compound: lithium
effect of ion on GTVap enzyme activity (GTVap [1]; between 1 μM and 10 mM): no effect

Compound: [Zn+2] [Zinc]
effect of ion on GTVap enzyme activity (GTVap [1]; [8]): optimally activate at μmolar concentrations and inhibit at mmolar concentrations
stabilization of GTVap activity against time dependent inactivation (GTVap [2]): do not stabilize the enzyme

Compound: insulin: Insulin (porcine) obtained from Eli Lilly
GTVap translocation (Western blot reactivity) (GTVap [6]): translocates to the plasma membrane
increase of GTVap enzyme activity in the plasma membrane (GTVap [6]): 29%
cleavage of insulin by GTVap (mass spectroscopic analysis) (GTVap [7]): N-terminal residues phenylalanine and valine of the B-subunit of insulin were removed sequentially

Now from value to compound, other results behind:

activity of GTVap with amino acid-p-nitroanilide substrate (GTVap [4]): 0.35 nmoles/μg protein/hr
Compound: O=C(Nc1ccc([N+](=O)[O-])cc1)[C@@H]1CCCN1 [proline p-nitroanilide]

activity of GLUT4 vesicle GTVap with amino acid-β-napthylamide substrate (GLUT4 vesicle GTVap): 0.9 nmoles/25 uL extract/hr
Compound: NC(Cc1ccccc1)C(=O)Nc1ccc2ccccc2c1 (stereo not drawn) [phenylalanine β-napthylamide]

effect of ion on GTVap enzyme activity (GTVap [1]; between 1 μM and 10 mM): no effect
Compound: [K+] [potassium]

activity of GLUT4 vesicle GTVap with amino acid-β-napthylamide substrate (GLUT4 vesicle GTVap): 2.9 nmoles/25 uL extract/hr
Compound: CSCCC(N)C(=O)Nc1ccc2ccccc2c1 (stereo not drawn) [methionine β-napthylamide]

activity of GTVap with amino acid-p-nitroanilide substrate (GTVap [4]): 0.09 nmoles/μg protein/hr
Compound: CC(C)[C@H](N)C(=O)Nc1ccc([N+](=O)[O-])cc1 [valine p-nitroanilide]

inhibition of GTVap activity (GTVap [3]; at >0.2 mM, relative to inhibitor-free control): > 98%
Compound: c1cnc2c(c1)ccc1cccnc12 [phenanthroline]

percent of total aminopeptidase activity bound [5]: 93%
Compound: wheat germ lectin-Sepharose 6 MB (tool reagent)

stabilization of GTVap activity against time dependent inactivation (GTVap [2]): do not stabilize the enzyme
Compound: [Mn+2] [manganese]
effect of ion on GTVap enzyme activity (GTVap [1]; [8]): optimally activate at μmolar concentrations and inhibit at mmolar concentrations
